GI50 and TGI data for eleven molecules are collected here from PubChem BioAssay (NCI).

Values joined by “and” are separate entries in the source; they are usually repeats but may differ in a detail not shown here. Identical values can stand only once.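 Values below derive from 48-hour exposures of cells grown in 96-well plates, with endpoints linearly interpolated between the two concentrations bracketing the appropriate inhibition level. GI50 = concentration required for 50% inhibition of growth. TGI: total growth inhibition.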

Some test systems named below: COLO 205 colon; EKVX NSCLC; HCT-15 colon; HOP-92 NSCLC; K-562 leukemia; LOX IMVI melanoma; MDA-MB-231 breast; RPMI-8226 leukemia; RXF 393 renal; SF-268 CNS.
What all share (experiment): inhibition of tumour cell growth, NCI panel, 48 h

Consider `Cc1ccc(NC(=O)c2ccoc2)cc1-c1ccc(C(=O)NCC2CC2)cc1`, for which the GI50 in the experiment on COLO 205 colon is > 25 µM; in the experiment on EKVX NSCLC, > 13.5 µM; in the experiment on HCT-15 colon it was > 20.5 µM; in the experiment with HOP-92 NSCLC, 8.76 µM; in the experiment on K-562 leukemia, > 18.6 µM; in the experiment with LOX IMVI melanoma, > 25 µM. Further, the GI50 was > 22.6 µM in the experiment on MDA-MB-231 breast, > 16.2 µM in the experiment on RPMI-8226 leukemia, > 25 µM with RXF 393 renal and > 25 µM in the experiment on SF-268 CNS. Also, the TGI with COLO 205 colon, in the experiment with EKVX NSCLC, with HCT-15 colon, in the experiment with HOP-92 NSCLC, with K-562 leukemia and with LOX IMVI melanoma was > 25 µM throughout. Moreover, the TGI with MDA-MB-231 breast, in the experiment on RPMI-8226 leukemia, with RXF 393 renal and in the experiment with SF-268 CNS was > 25 µM throughout.
With `CC(C)Cn1cnc2c(N)nc3ccccc3c21`, the GI50 is 20.7 µM in the experiment with COLO 205 colon; 26.2 µM in the experiment with EKVX NSCLC; 29.7 µM in the experiment on HCT-15 colon; 31.1 µM in the experiment on HOP-92 NSCLC; > 54.7 µM in the experiment on K-562 leukemia; 25.7 µM in the experiment with LOX IMVI melanoma. Moreover, the GI50 in the experiment on MDA-MB-231 breast is 46 µM; in the experiment with RPMI-8226 leukemia, 5.5 µM; in the experiment on RXF 393 renal, 28.9 µM; in the experiment with SF-268 CNS, 61.3 µM. The TGI was > 88.2 µM with COLO 205 colon; > 100 µM in the experiment on EKVX NSCLC; > 100 µM in the experiment with HCT-15 colon; > 100 µM with HOP-92 NSCLC; > 100 µM in the experiment on K-562 leukemia; > 100 µM with LOX IMVI melanoma. The TGI is > 100 µM in the experiment with MDA-MB-231 breast, > 48.3 µM in the experiment on RPMI-8226 leukemia, 97.2 µM in the experiment on RXF 393 renal and > 100 µM in the experiment with SF-268 CNS.
Regarding `C=CCn1c(SCC(=O)Nc2ccc(C(=O)/C=C/c3cc(OC)c(OC)c(OC)c3)cc2)nnc1-c1cc(OC)c(OC)c(OC)c1`, the GI50 in the experiment with COLO 205 colon is 4.94 µM; in the experiment with EKVX NSCLC, 4.03 µM; in the experiment with HCT-15 colon it was 1.86 µM; with HOP-92 NSCLC, 12.5 µM; with K-562 leukemia, 3.44 µM; with LOX IMVI melanoma it was 2.3 µM. Also, the GI50 in the experiment on MDA-MB-231 breast was 3.81 µM; in the experiment on RPMI-8226 leukemia, 1.51 µM; in the experiment on RXF 393 renal it was 2.16 µM; in the experiment with SF-268 CNS it was 3.99 µM. The TGI in the experiment on COLO 205 colon is 24.7 µM; in the experiment on EKVX NSCLC, 33.8 µM; in the experiment with HCT-15 colon, 5.61 µM; with HOP-92 NSCLC, 56.6 µM; with K-562 leukemia, > 100 µM; with LOX IMVI melanoma, 6.53 µM. For the same molecule, the TGI is > 100 µM in the experiment with MDA-MB-231 breast, 4.91 µM in the experiment with RPMI-8226 leukemia, 4.65 µM in the experiment with RXF 393 renal and 64.6 µM in the experiment with SF-268 CNS.
`O=C(Nc1ccccc1/C=C/c1n[nH]c2ccccc12)c1ccccc1`: the GI50 is 1.71 µM in the experiment on COLO 205 colon; 1.34 µM with EKVX NSCLC; 2.37 µM in the experiment with HCT-15 colon; 0.218 µM in the experiment on HOP-92 NSCLC; 3.47 µM with K-562 leukemia; 2.48 µM in the experiment with LOX IMVI melanoma. In addition, the GI50 is 3.45 µM in the experiment with MDA-MB-231 breast, 3.07 µM in the experiment with RPMI-8226 leukemia, 4.58 µM in the experiment on RXF 393 renal and 3.75 µM in the experiment with SF-268 CNS. The TGI in the experiment with COLO 205 colon turned out to be 3.6 µM; in the experiment with EKVX NSCLC, 8.91 µM; in the experiment on HCT-15 colon it was 8.53 µM; in the experiment on HOP-92 NSCLC it was 5.25 µM; with K-562 leukemia it was 12.6 µM; in the experiment on LOX IMVI melanoma it was 11.4 µM. The TGI in the experiment with MDA-MB-231 breast is 15.7 µM; in the experiment with RPMI-8226 leukemia, 12.8 µM; in the experiment on RXF 393 renal it was 17.3 µM; with SF-268 CNS it was 17.3 µM.
For the molecule `CN1CCN(CCCOC(=O)c2c3c(n4ccccc24)C(=O)c2ncccc2C3=O)CC1`, the GI50 is < 0.0332 µM in the experiment on COLO 205 colon; 0.0456 µM in the experiment with EKVX NSCLC; < 0.0143 µM in the experiment with HCT-15 colon; 0.254 µM in the experiment on HOP-92 NSCLC; < 0.0113 µM with K-562 leukemia; < 0.01 µM in the experiment on LOX IMVI melanoma. The GI50 was 2.53 µM with MDA-MB-231 breast, 0.0653 µM in the experiment on RPMI-8226 leukemia, < 0.0118 µM with RXF 393 renal and < 0.01 µM in the experiment on SF-268 CNS. Further, the TGI in the experiment on COLO 205 colon turned out to be 1.17 µM; in the experiment with EKVX NSCLC it was 12.6 µM; with HCT-15 colon, 1.52 µM; in the experiment on HOP-92 NSCLC, 16.8 µM; in the experiment with LOX IMVI melanoma, 0.0334 µM; with MDA-MB-231 breast, 37.2 µM. Also, the results for the TGI with RXF 393 renal and with SF-268 CNS were 0.0303 µM and 10.3 µM, respectively.
Consider `COc1cc(-c2csc(NC(=O)Nc3ccc(Cl)cc3)n2)cc(OC)c1OC`, for which the GI50 in the experiment with COLO 205 colon was 2.52 µM; in the experiment with EKVX NSCLC it was 2.77 µM; in the experiment on HCT-15 colon, 2.9 µM; in the experiment on HOP-92 NSCLC, 2.12 µM; with K-562 leukemia it was 3.38 µM; in the experiment with LOX IMVI melanoma it was 2.59 µM. The GI50 was 2.99 µM in the experiment on MDA-MB-231 breast, 2.14 µM in the experiment with RPMI-8226 leukemia, 3.91 µM in the experiment on RXF 393 renal and 3.28 µM with SF-268 CNS. Also, the TGI was 7.05 µM in the experiment on COLO 205 colon; > 64.5 µM in the experiment on EKVX NSCLC; > 40.9 µM in the experiment on HCT-15 colon; 6.85 µM in the experiment with HOP-92 NSCLC; > 100 µM in the experiment with K-562 leukemia; 7.59 µM in the experiment on LOX IMVI melanoma. The TGI turned out to be 12.7 µM with MDA-MB-231 breast, 5.78 µM in the experiment on RPMI-8226 leukemia, 13.9 µM in the experiment on RXF 393 renal and 20.8 µM in the experiment on SF-268 CNS.
For the molecule `CC[C@@H]1C(=O)N(C)c2cnc(Nc3ccc(C(=O)NC4CCC(N5CCN(CC6CC6)CC5)CC4)cc3OC)nc2N1C(C)C` (stereo not given in full), the GI50 was 0.00438 µM and < 0.01 µM in the experiment on COLO 205 colon; 0.0749 µM and 0.234 µM with EKVX NSCLC; 0.0686 µM and 0.145 µM in the experiment on HCT-15 colon; 0.0441 µM and 0.0596 µM in the experiment with HOP-92 NSCLC; 0.00946 µM and 0.0288 µM with K-562 leukemia; 0.0254 µM and 0.0339 µM in the experiment with LOX IMVI melanoma. In addition, the GI50 in the experiment with MDA-MB-231 breast is 0.0186 µM and 0.0304 µM; in the experiment on RPMI-8226 leukemia it was 0.0382 µM and 0.0558 µM; in the experiment on RXF 393 renal, 0.0349 µM and 0.0393 µM; with SF-268 CNS, 0.0586 µM and 0.0485 µM. Also, the TGI is 0.276 µM and 0.268 µM in the experiment with COLO 205 colon; > 10 µM and 21.6 µM with EKVX NSCLC; > 6.64 µM and 5.33 µM with HCT-15 colon; > 2.9 µM and 5.99 µM in the experiment on HOP-92 NSCLC; > 10 µM and 1.83 µM in the experiment with K-562 leukemia; 1.6 µM and 1.67 µM in the experiment with LOX IMVI melanoma. Also, the TGI was > 4.6 µM and 7.06 µM with MDA-MB-231 breast; 1.62 µM and 1.89 µM in the experiment on RPMI-8226 leukemia; > 9.08 µM and 4.9 µM in the experiment on RXF 393 renal; > 10 µM and 7.8 µM with SF-268 CNS.
With `COc1ccc2c(c1[N+](=O)[O-])CC[C@@H]1[C@@H]2CC[C@]2(C)C(=O)CC[C@@H]12`, the GI50 with COLO 205 colon was > 1000 µM; with EKVX NSCLC, > 580 µM; with HCT-15 colon, > 1000 µM; in the experiment on HOP-92 NSCLC, 289 µM; with K-562 leukemia, > 1000 µM; with LOX IMVI melanoma, 434 µM. Besides, the GI50 was 400 µM in the experiment on MDA-MB-231 breast, > 1000 µM in the experiment with RPMI-8226 leukemia, 432 µM in the experiment with RXF 393 renal and 342 µM with SF-268 CNS. The TGI with EKVX NSCLC is > 1000 µM; in the experiment with HCT-15 colon it was > 1000 µM; in the experiment with LOX IMVI melanoma, > 1000 µM; with MDA-MB-231 breast, > 905 µM; in the experiment on RPMI-8226 leukemia, > 1000 µM; in the experiment with RXF 393 renal, > 927 µM. Further, in the experiment on SF-268 CNS, the TGI is > 1000 µM.
Consider `CC(=O)Nc1ccc(CC[C@H]2CCC/C=C/[C@@H]3C[C@H](O)C[C@H]3[C@H](O)/C=C/C(=O)O2)cc1`, for which the GI50 was 0.139 µM in the experiment on COLO 205 colon; 0.191 µM in the experiment on EKVX NSCLC; 0.471 µM with HCT-15 colon; 0.217 µM with HOP-92 NSCLC; 0.392 µM in the experiment with K-562 leukemia; 0.0912 µM in the experiment on LOX IMVI melanoma. Further, the GI50 in the experiment with MDA-MB-231 breast was 0.0826 µM; with RPMI-8226 leukemia it was 0.222 µM; with RXF 393 renal, 0.0359 µM; in the experiment with SF-268 CNS, 0.0594 µM. Also, the TGI with COLO 205 colon is 0.283 µM; in the experiment on EKVX NSCLC, 4.33 µM; with HCT-15 colon, > 100 µM; in the experiment on HOP-92 NSCLC it was 0.791 µM; in the experiment with K-562 leukemia, > 100 µM; with LOX IMVI melanoma, 0.405 µM. The TGI is 0.252 µM in the experiment on MDA-MB-231 breast, 0.591 µM in the experiment on RPMI-8226 leukemia, 0.15 µM in the experiment on RXF 393 renal and > 100 µM with SF-268 CNS.
Take `COc1cc2c(cc1OCCCCCOc1ccc(-c3nc4ccccc4s3)cc1)N=C[C@@H]1CCCN1C2=O`: the GI50 was 1.32 µM in the experiment on COLO 205 colon; 5.66 µM in the experiment on EKVX NSCLC; 2.46 µM in the experiment with HCT-15 colon; 0.886 µM with HOP-92 NSCLC; 0.914 µM in the experiment with K-562 leukemia; 0.983 µM with LOX IMVI melanoma. Also, the GI50 with MDA-MB-231 breast is 1.02 µM; in the experiment on RPMI-8226 leukemia it was 1.03 µM; in the experiment on RXF 393 renal, 1.46 µM; in the experiment with SF-268 CNS it was 5.62 µM. The TGI in the experiment on COLO 205 colon was 6.53 µM; with EKVX NSCLC, > 21.2 µM; in the experiment on HCT-15 colon, 22.2 µM; with HOP-92 NSCLC, 3.62 µM; with K-562 leukemia, 12.2 µM; in the experiment on LOX IMVI melanoma, 4.37 µM. Also, the TGI in the experiment with MDA-MB-231 breast worked out at 4.2 µM; in the experiment on RPMI-8226 leukemia it was 4.14 µM; with RXF 393 renal, 5.43 µM; in the experiment with SF-268 CNS, 31.6 µM.
Turning to `CC(C)CC(NC(=O)C(O)C(N)Cc1ccccc1)C(=O)O` (stereo not given), the TGI in the experiment on COLO 205 colon, in the experiment with EKVX NSCLC, in the experiment with HCT-15 colon, in the experiment with HOP-92 NSCLC, in the experiment on K-562 leukemia and with LOX IMVI melanoma was > 100 µM each time. Moreover, the TGI with MDA-MB-231 breast, in the experiment with RPMI-8226 leukemia, with RXF 393 renal and with SF-268 CNS was > 100 µM in each case.
